“Also recorded” adds a separate entry of the source.
Assay: fresh human plasma
Settings: 37 °C, up to 24 hours

With H2N-USPGYS-NH2 the fragment found was “a, major; also recorded: b, major”.
